According to patent EP4242199A1 (priority 2022, dated 2023):
Like-named read-outs stand apart in the source and are kept apart here.

Legend:
Septoria tritici = assay: Microtest: activity against wheat leaf blotch pathogen Septoria tritici (SEPTTR); format: cell-based; details: relative growth vs active compound-free control (100%), 405 nm, 7 days after inoculation, 18°C
[1] = system: Qol (G143A) resistant isolate of Septoria tritici; assay: Microtest: activity against resistant isolate of Septoria tritici (SEPTTR res); format: cell-based; details: relative growth vs active compound-free control (100%), 405 nm, 7 days after inoculation, 18°C
Sclerotinia sclerotiorum = format: cell-based
Pyricularia oryzae = format: cell-based; details: PYRIOR, relative growth vs active compound-free control (100%), 405 nm, 7 days after inoculation, 18°C
Cercospora sojina = format: cell-based
Puccinia recondita [2] = format: in vivo; details: for PUCCRT Disease level (%) P1 at 63 ppm: wheat, preventative spray 1 day before inoculation, % diseased leaf area, untreated 82
Puccinia recondita [3] = format: in vivo; details: for PUCCRT Disease level (%) K4 at 63 ppm: wheat, curative spray 4 days after inoculation, % diseased leaf area, untreated 85
[4] = system: Qol (F129L) resistant isolate of Pyrenophora teres; assay: Microtest: activity against resistant isolate of net blotch pathogen Pyrenophora teres (PYRNTE res); format: cell-based; details: relative growth vs active compound-free control (100%), 405 nm, 7 days after inoculation, 18°C
Leptosphaeria nodorum = assay: Microtest: activity against Leptosphaeria nodorum causing wheat leaf spots (LEPTNO); format: cell-based; details: relative growth vs active compound-free control (100%), 405 nm, 7 days after inoculation, 18°C
[5] = system: Qol (F129L) resistant isolate of Alternaria solani; assay: Microtest: activity against resistant isolate of Alternaria solani (ALTESO res); format: cell-based; details: relative growth vs active compound-free control (100%), 405 nm, 7 days after inoculation, 18°C
Phytophthora infestans = format: cell-based; details: PHYTIN, relative growth vs active compound-free control (100%), 405 nm, 7 days after inoculation, 18°C
Alternaria solani = format: cell-based
Phakopsora pachyrhizi [6] = assay: Greenhouse: protective control of soybean rust on soybeans caused by Phakopsora pachyrhizi (PHAKPA P6); format: in vivo; details: spray six days before inoculation, F129L strain, % diseased leaf area, untreated 74
[7] = system: Colletotrichum orbiculare; assay: Microtest: activity against anthracnose pathogen Colletotrichum orbiculare (COLLLA); format: cell-based; details: relative growth vs active compound-free control (100%), 405 nm, 7 days after inoculation, 18°C
Phakopsora pachyrhizi [8] = assay: Greenhouse: protective control of soybean rust on soybeans caused by Phakopsora pachyrhizi (PHAKPA P2); format: in vivo; details: spray 2 days before inoculation, F129L strain, % diseased leaf area, untreated 97
[9] = SCLESC, relative growth vs active compound-free control (100%), 405 nm, 7 days after inoculation, 18°C
[10] = ALTESO, relative growth vs active compound-free control (100%), 405 nm, 7 days after inoculation, 18°C

## C/C(C#Cc1ccc(Cl)cc1)=N\OCc1ccccc1-n1nnn(C)c1=O [Compound 1, 1-[2-[[(E)-[3-(4-Chlorophenyl)-1-methyl-prop-2-ynylidene]amino]oxymethyl]phenyl]-4-methyl-tetrazol-5-one]
Septoria tritici
  Growth (%) at 125 ppm: 5%
[1]
  Growth (%) at 125 ppm: 13%
Sclerotinia sclerotiorum
  Growth (%) at 125 ppm: 11%
Pyricularia oryzae
  Growth (%) at 125 ppm: 0%
Cercospora sojina
  Growth (%) at 125 ppm: 0%

## COc1nn(C)c(=O)n1-c1ccccc1CO/N=C(\C)C#Cc1ccc(Cl)cc1 [Compound 2, 4-[2-[[(E)-[3-(4-Chlorophenyl)-1-methyl-prop-2-ynylidene]amino]oxymethyl]phenyl]-5-methoxy-2-methyl-1,2,4-triazol-3-one]
Puccinia recondita [2]
  PUCCRT Disease level (%) P1 at 16 ppm: 11%
Puccinia recondita [3]
  PUCCRT Disease level (%) K4 at 16 ppm: 30%
Pyricularia oryzae
  Growth (%) at 125 ppm: 16%

## COc1nn(C)c(=O)n1-c1ccccc1CO/N=C(\C)C#Cc1cccc(Cl)c1 [Compound 4, 4-[2-[[(E)-[3-(3-Chlorophenyl)-1-methyl-prop-2-ynylidene]amino]oxymethyl]phenyl]-5-methoxy-2-methyl-1,2,4-triazol-3-one]
[4]
  Growth (%) at 125 ppm: 0%
Puccinia recondita [2]
  PUCCRT Disease level (%) P1 at 16 ppm: 13%
Leptosphaeria nodorum
  Growth (%) at 125 ppm: 7%
Septoria tritici
  Growth (%) at 125 ppm: 0%
[1]
  Growth (%) at 125 ppm: 0%
Sclerotinia sclerotiorum
  Growth (%) at 125 ppm: 17%
Puccinia recondita [3]
  PUCCRT Disease level (%) K4 at 16 ppm: 31%
Pyricularia oryzae
  Growth (%) at 125 ppm: 0%
[5]
  Growth (%) at 125 ppm: 16%
Phytophthora infestans
  Growth (%) at 125 ppm: 0%
Alternaria solani
  Growth (%) at 125 ppm: 4%

## (E)-4-(3-Chlorophenyl)-N-[[2-[(E)-C-(1,4,2-dioxazin-3-yl)-N-methoxy-carbonimido-yl]phenyl]methoxy]but-3-yn-2-imine [Compound 8]
Phakopsora pachyrhizi [6]
  PHAKPA Disease level (%) P6 at 63 ppm: 12%
Puccinia recondita [2]
  PUCCRT Disease level (%) P1 at 63 ppm: 0%
Leptosphaeria nodorum
  Growth (%) at 125 ppm: 2%
Septoria tritici
  Growth (%) at 125 ppm: 0%
[7]
  Growth (%) at 125 ppm: 0%
Sclerotinia sclerotiorum; [9]
  Growth (%) at 125 ppm: 19%
Puccinia recondita [3]
  PUCCRT Disease level (%) K4 at 63 ppm: 28%
Pyricularia oryzae
  Growth (%) at 125 ppm: 0%
Phakopsora pachyrhizi [8]
  PHAKPA Disease level (%) P2 at 63 ppm: 7%
Alternaria solani; [10]
  Growth (%) at 125 ppm: 2%

## (E)-4-(4-chlorophenyl)-N-[[2-[(E)-C-(1,4,2-dioxazin-3-yl)-N-methoxy-carbonimidoyl]-phenyl]methoxy]but-3-yn-2-imine [Compound 7]
Phakopsora pachyrhizi [6]
  PHAKPA Disease level (%) P6 at 63 ppm: 32%
Puccinia recondita [2]
  PUCCRT Disease level (%) P1 at 63 ppm: 13%
Leptosphaeria nodorum
  Growth (%) at 125 ppm: 0%
Septoria tritici
  Growth (%) at 125 ppm: 0%
[7]
  Growth (%) at 125 ppm: 0%
Sclerotinia sclerotiorum; [9]
  Growth (%) at 125 ppm: 1%
Puccinia recondita [3]
  PUCCRT Disease level (%) K4 at 63 ppm: 53%
Pyricularia oryzae
  Growth (%) at 125 ppm: 0%
Phakopsora pachyrhizi [8]
  PHAKPA Disease level (%) P2 at 63 ppm: 33%
Alternaria solani; [10]
  Growth (%) at 125 ppm: 1%

## Ethyl N-[2-[[(E)-[3-(3-chlorophenyl)-1-methyl-prop-2-ynylidene]amino]oxymethyl]-phenyl]-N-methoxy-carbamate [Compound 6]
[4]
  Growth (%) at 125 ppm: 0%
Phakopsora pachyrhizi [6]
  PHAKPA Disease level (%) P6 at 63 ppm: 13%
Puccinia recondita [2]
  PUCCRT Disease level (%) P1 at 63 ppm: 7%
Leptosphaeria nodorum
  Growth (%) at 125 ppm: 0%
Septoria tritici
  Growth (%) at 125 ppm: 0%
[7]
  Growth (%) at 125 ppm: 0%
Sclerotinia sclerotiorum; [9]
  Growth (%) at 125 ppm: 17%
Puccinia recondita [3]
  PUCCRT Disease level (%) K4 at 63 ppm: 50%
Pyricularia oryzae
  Growth (%) at 125 ppm: 0%
Phakopsora pachyrhizi [8]
  PHAKPA Disease level (%) P2 at 63 ppm: 11%
Alternaria solani; [10]
  Growth (%) at 125 ppm: 0%

## Ethyl N-[2-[[(E)-[3-(4-chlorophenyl)-1-methyl-prop-2-ynylidene]amino]oxymethyl]-phenyl]-N-methoxy-carbamate [Compound 5]
[4]
  Growth (%) at 125 ppm: 0%
Phakopsora pachyrhizi [6]
  PHAKPA Disease level (%) P6 at 63 ppm: 48%
Puccinia recondita [2]
  PUCCRT Disease level (%) P1 at 63 ppm: 10%
Leptosphaeria nodorum
  Growth (%) at 125 ppm: 0%
Septoria tritici
  Growth (%) at 125 ppm: 0%
[7]
  Growth (%) at 125 ppm: 0%
Sclerotinia sclerotiorum; [9]
  Growth (%) at 125 ppm: 12%
Puccinia recondita [3]
  PUCCRT Disease level (%) K4 at 63 ppm: 70%
Pyricularia oryzae
  Growth (%) at 125 ppm: 0%
Phakopsora pachyrhizi [8]
  PHAKPA Disease level (%) P2 at 63 ppm: 43%
Alternaria solani; [10]
  Growth (%) at 125 ppm: 10%
